Data on 16 compounds can be found in the supplement of paper PMC5722580.

Structures are written as SMILES.

For one assay, the system named is KAI3. As to the kind of experiment: drug sensitivity score (viability inhibition); higher = more sensitive. Particulars: 72 h; IL2 2.5 ng/ml. How it is done:
(§1)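 NK-cell leukemia/lymphoma cell lines (3,000 cells/well) were cultured with IL2 2.5 ng/ml in 384-well drug plates (5-8 concentrations over a 10,000-fold range) for 72 h at 37 C; viability was read with CellTiter-Glo. DSS is a normalised area under the dose-response curve; the experiment was repeated twice.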

The subject of a further assay is KHYG-1. The assay is described as above. Particulars: 72 h; IL2 2.5 ng/ml. How it is done: as §1
The subject of the next assay is NK-92. Described as above. Particulars: 72 h; IL2 2.5 ng/ml. How it is done:
as §1

In another assay the test system is NK-YS. The description is as above. The conditions noted are these: 72 h; IL2 2.5 ng/ml. How it is done:
as §1

The subject of the next assay is NKL. The description is as above. The conditions noted are these: 72 h; IL2 2.5 ng/ml. As for the experimental part: as §1
The test system of another assay is SNK6. The description is as above. Particulars: 72 h; IL2 2.5 ng/ml. How it is done:
as §1

A further assay has as its system YT. The description is as above. Particulars: 72 h; IL2 2.5 ng/ml. How it is done: as §1
The next assay deals with HEK293-SIE STAT3 WT. Description: drug sensitivity score (inhibition of STAT3 luciferase reporter); higher = stronger inhibition. Particulars: 6 h; STAT3: WT; IL6 100 ng/ml. How it is done: (§2)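 HEK293 cells with a STAT3-inducible (SIE) luciferase reporter, stably expressing WT STAT3 (IL6 100 ng/ml) or Y640F STAT3 (no IL6), were incubated 6 h with drugs in 384-well plates (5-8 concentrations over a 10,000-fold range); luciferase was read with ONE-Glo. DSS is a normalised area under the dose-response curve; values are the mean of two experiments.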
(Reporter assays use an easily measured gene product as a stand-in for the process of interest.)

The test system of another assay is HEK293-SIE STAT3 Y640F. The description is as above. Particulars: 6 h; IL6 0 ng/ml. How it is done: as §2

As for `Cc1cc(Nc2nc(N[C@@H](C)c3ncc(F)cn3)ncc2Cl)[nH]n1` [AZD1480], the drug sensitivity score in the assay with KAI3 is 17.4 DSS; in the assay on KHYG-1, 18.3 DSS; in the assay on NK-92, 7.65 DSS; in the assay on NK-YS, 10.7 DSS; in the assay with NKL, 13.7 DSS; in the assay with SNK6, 12.1 DSS. The drug sensitivity score was 6.65 DSS in the assay with YT, 17.9 DSS in the assay with HEK293-SIE STAT3 WT and 8.77 DSS in the assay on HEK293-SIE STAT3 Y640F.

`NC1(c2ccc(-c3nc4ccn5c(=O)[nH]nc5c4cc3-c3ccccc3)cc2)CCC1` [MK-2206]: the drug sensitivity score in the assay on KAI3 is 6.43 DSS; with KHYG-1, 4.1 DSS; with NK-92, 6.29 DSS; with NK-YS, 5 DSS; in the assay with NKL, 4.44 DSS; in the assay with SNK6 it was 2.89 DSS. Further, the drug sensitivity score worked out at 2.45 DSS in the assay on YT, 5.85 DSS with HEK293-SIE STAT3 WT and 0 DSS in the assay with HEK293-SIE STAT3 Y640F.

With `COc1c(C)cnc(Cn2cnc3c(Cl)nc(N)nc32)c1C` [BIIB021], the drug sensitivity score in the assay on KAI3 was 26 DSS; in the assay with KHYG-1, 26.4 DSS; with NK-92 it was 23 DSS; in the assay with NK-YS, 24.7 DSS; in the assay on NKL it was 21.9 DSS; with SNK6, 25.4 DSS. In addition, the drug sensitivity score with YT came out at 22.2 DSS; in the assay on HEK293-SIE STAT3 WT it was 15.3 DSS; in the assay with HEK293-SIE STAT3 Y640F, 9.85 DSS.

In the case of `O=P1(N(CCCl)CCCl)NCCCO1` (centres undefined) [Cyclophosphamide], the drug sensitivity score came to 1.89 DSS with KAI3; 0 DSS in the assay on KHYG-1; 0 DSS in the assay on NK-92; 0.435 DSS with NK-YS; 0 DSS in the assay on NKL; 0.54 DSS with SNK6. Besides, the drug sensitivity score in the assay with YT amounted to 0 DSS; in the assay with HEK293-SIE STAT3 WT, 2.6 DSS; in the assay with HEK293-SIE STAT3 Y640F, 1.17 DSS.

On to `COc1ccc(-c2ccc3c(N4CCOC[C@@H]4C)nc(N4CCOC[C@@H]4C)nc3n2)cc1CO` [AZD8055], for which the drug sensitivity score is 14.1 DSS with KAI3; 16.7 DSS with KHYG-1; 16.3 DSS with NK-92; 19.6 DSS in the assay with NK-YS; 23.3 DSS with NKL; 14.9 DSS in the assay on SNK6. Further, the figures for the drug sensitivity score with YT, in the assay on HEK293-SIE STAT3 WT and in the assay with HEK293-SIE STAT3 Y640F were 16.7 DSS, 20.2 DSS and 18.6 DSS, respectively.

As to `C=CCn1c(=O)c2cnc(Nc3ccc(N4CCN(C)CC4)cc3)nc2n1-c1cccc(C(C)(C)O)n1` [MK1775], the drug sensitivity score in the assay on KAI3 was determined as 19.9 DSS; in the assay with KHYG-1, 24.5 DSS; in the assay on NK-92 it was 23 DSS; in the assay on NK-YS, 20.5 DSS; in the assay with NKL it was 22.5 DSS; in the assay with SNK6 it was 19.7 DSS. Also, the drug sensitivity score in the assay with YT worked out at 19.8 DSS; with HEK293-SIE STAT3 WT it was 9.88 DSS; in the assay on HEK293-SIE STAT3 Y640F, 8.87 DSS.

Consider `COc1ncc(-c2ccc3nccc(-c4ccnnc4)c3c2)cc1NS(=O)(=O)c1ccc(F)cc1F` [Omipalisib], for which the drug sensitivity score in the assay with KAI3 is 6.45 DSS; with KHYG-1, 9.27 DSS; in the assay with NK-92, 11.6 DSS; with NK-YS it was 12.1 DSS; with NKL, 11.3 DSS; in the assay with SNK6 it was 5.15 DSS. The drug sensitivity score in the assay with YT came out at 10.9 DSS; in the assay on HEK293-SIE STAT3 WT it was 5.9 DSS; in the assay on HEK293-SIE STAT3 Y640F it was 8.15 DSS.

Take `CN1CCN(CCOc2cc(OC3CCOCC3)c3c(Nc4c(Cl)ccc5c4OCO5)ncnc3c2)CC1` [Saracatinib]: the drug sensitivity score with KAI3 is 2.15 DSS; in the assay on KHYG-1, 2.88 DSS; with NK-92, 3.28 DSS; in the assay on NK-YS it was 2.03 DSS; with NKL, 1.25 DSS; in the assay on SNK6, 0.135 DSS. The drug sensitivity score with YT was found to be 2.46 DSS; in the assay with HEK293-SIE STAT3 WT, 0 DSS; in the assay on HEK293-SIE STAT3 Y640F, 1.9 DSS.

With `N#CC[C@H](C1CCCC1)n1cc(-c2ncnc3[nH]ccc23)cn1` [Ruxolitinib], the drug sensitivity score in the assay with KAI3 is 27.5 DSS; in the assay with KHYG-1, 30.5 DSS; with NK-92 it was 21.8 DSS; in the assay on NK-YS, 19.5 DSS; with NKL, 26.9 DSS; in the assay on SNK6, 22.2 DSS. Further, the values for the drug sensitivity score in the assay with YT, with HEK293-SIE STAT3 WT and in the assay on HEK293-SIE STAT3 Y640F were 15.8 DSS, 34.1 DSS and 13.2 DSS, respectively.

As to `COc1cc(Nc2ncc(F)c(Nc3ccc4c(n3)NC(=O)C(C)(C)O4)n2)cc(OC)c1OC` [Tamatinib], the drug sensitivity score in the assay with KAI3 stood at 10.5 DSS; in the assay on KHYG-1 it was 8.19 DSS; in the assay with NK-92 it was 5.27 DSS; with NK-YS it was 2.57 DSS; with NKL, 7.75 DSS; with SNK6, 6.98 DSS. Further, the drug sensitivity score was 2.87 DSS with YT, 8.6 DSS in the assay on HEK293-SIE STAT3 WT and 0 DSS in the assay with HEK293-SIE STAT3 Y640F.

Turning to `CC(=O)OC[C@H]1O[C@@H]([S-])[C@H](OC(C)=O)[C@@H](OC(C)=O)[C@@H]1OC(C)=O.CCP(CC)CC.[Au+]` [Auranofin], the drug sensitivity score is 2.72 DSS with KAI3; 5.84 DSS with KHYG-1; 4.86 DSS with NK-92; 8.08 DSS in the assay on NK-YS; 8.44 DSS with NKL; 8.28 DSS with SNK6. The drug sensitivity score turned out to be 8.63 DSS with YT, 5.9 DSS in the assay with HEK293-SIE STAT3 WT and 2.05 DSS in the assay with HEK293-SIE STAT3 Y640F.

In the case of `O=S(=O)(c1cccc2cnccc12)N1CCCNCC1` [Fasudil], the drug sensitivity score in the assay on KAI3 amounted to 2.61 DSS; with KHYG-1, 1.2 DSS; in the assay with NK-92 it was 2.52 DSS; with NK-YS, 0.1 DSS; in the assay with NKL it was 0.632 DSS; with SNK6 it was 0.11 DSS. Further, the drug sensitivity score in the assay on YT was 1.44 DSS; in the assay on HEK293-SIE STAT3 WT, 1.9 DSS; in the assay with HEK293-SIE STAT3 Y640F, 0 DSS.

On to `CNC(=O)c1cc(Oc2ccc(NC(=O)Nc3ccc(Cl)c(C(F)(F)F)c3)cc2)ccn1` [Sorafenib], for which the drug sensitivity score with KAI3 was 0 DSS; in the assay with KHYG-1 it was 0.013 DSS; with NK-92, 0.365 DSS; in the assay on NK-YS, 0.00415 DSS; in the assay on NKL, 0 DSS; in the assay with SNK6 it was 4.36 DSS. In addition, the drug sensitivity score in the assay with YT is 0 DSS; with HEK293-SIE STAT3 WT, 2.1 DSS; in the assay with HEK293-SIE STAT3 Y640F it was 1.6 DSS.

For the compound `CC(=O)c1c(C)c2cnc(Nc3ccc(N4CCNCC4)cn3)nc2n(C2CCCC2)c1=O` [Palbociclib], the drug sensitivity score came out at 3.02 DSS in the assay with KAI3; 15.5 DSS in the assay on KHYG-1; 5.78 DSS with NK-92; 6.84 DSS in the assay with NK-YS; 9.52 DSS in the assay with NKL; 0 DSS in the assay on SNK6. Besides, the values for the drug sensitivity score in the assay with YT, in the assay with HEK293-SIE STAT3 WT and with HEK293-SIE STAT3 Y640F were 5.11 DSS, 4.85 DSS and 2.8 DSS, respectively.

Turning to `CC1(C)CCC(CN2CCN(c3ccc(C(=O)NS(=O)(=O)c4ccc(NCC5CCOCC5)c([N+](=O)[O-])c4)c(Oc4cnc5[nH]ccc5c4)c3)CC2)=C(c2ccc(Cl)cc2)C1` [Venetoclax], the drug sensitivity score with KAI3 stood at 29.2 DSS; in the assay on KHYG-1, 9.65 DSS; in the assay on NK-92, 3.59 DSS; with NK-YS it was 10.3 DSS; in the assay on NKL it was 11.9 DSS; in the assay with SNK6 it was 24.9 DSS. In addition, the drug sensitivity score in the assay on YT came to 11.6 DSS; in the assay with HEK293-SIE STAT3 WT it was 0.9 DSS; in the assay with HEK293-SIE STAT3 Y640F it was 1.5 DSS.

Consider `CC1(C)CCC(c2ccc(Cl)cc2)=C(CN2CCN(c3ccc(C(=O)NS(=O)(=O)c4ccc(N[C@H](CCN5CCOCC5)CSc5ccccc5)c(S(=O)(=O)C(F)(F)F)c4)cc3)CC2)C1` [Navitoclax], for which the drug sensitivity score with KAI3 was found to be 39.8 DSS; in the assay with KHYG-1, 25.9 DSS; with NK-92, 14.2 DSS; in the assay on NK-YS it was 27.6 DSS; in the assay on NKL it was 22.4 DSS; in the assay on SNK6 it was 39.1 DSS. Besides, the results for the drug sensitivity score with YT, with HEK293-SIE STAT3 WT and in the assay on HEK293-SIE STAT3 Y640F were 23.3 DSS, 0 DSS and 0.5 DSS, respectively.
